“And” between values parts separate entries of the source, which are not always exact repeats. Equal entries are not always repeated.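 All cell lines were grown in 96-well plates and treated with compound for 48 hours. GI50 = concentration required for 50% inhibition of growth. TGI: concentration producing complete growth inhibition.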
Legend:
Assay in all cases: NCI tumour cell line growth inhibition, 48 h
ACHN renal = tested on: ACHN renal
RPMI-8226 leukemia = tested on: RPMI-8226 leukemia
MDA-MB-231 breast = tested on: MDA-MB-231 breast
CCRF-CEM leukemia = tested on: CCRF-CEM leukemia
SK-MEL-28 melanoma = tested on: SK-MEL-28 melanoma
K-562 leukemia = tested on: K-562 leukemia
M14 melanoma = tested on: M14 melanoma
CAKI-1 renal = tested on: CAKI-1 renal
DU-145 prostate = tested on: DU-145 prostate
SR leukemia = tested on: SR leukemia

Structure (SMILES)	GI50 (ACHN renal) [µM]	TGI (ACHN renal) [µM]	GI50 (RPMI-8226 leukemia) [µM]	TGI (RPMI-8226 leukemia) [µM]	GI50 (MDA-MB-231 breast) [µM]	TGI (MDA-MB-231 breast) [µM]	GI50 (CCRF-CEM leukemia) [µM]	TGI (CCRF-CEM leukemia)	GI50 (SK-MEL-28 melanoma) [µM]	TGI (SK-MEL-28 melanoma) [µM]	GI50 (K-562 leukemia) [µM]	TGI (K-562 leukemia) [µM]	GI50 (M14 melanoma) [µM]	TGI (M14 melanoma) [µM]	GI50 (CAKI-1 renal) [µM]	TGI (CAKI-1 renal)	GI50 (DU-145 prostate) [µM]	TGI (DU-145 prostate) [µM]	GI50 (SR leukemia) [µM]	TGI (SR leukemia)
CC(=O)N1CCN(CCOc2ccc(C3CCN(C4=Nn5c(nnc5C(F)(F)F)CC4)CC3)cc2)CC1	10.6	> 100	4.74	79.7	7.83	> 100	20.4	> 100 µM	21.4	> 100	8.25	> 100	11.1	> 100	3.27	> 100 µM	63	> 100	–	–
COc1cc(C2c3cc4c(cc3[C@@H](Nc3ccc(N)cc3)C3COC(=O)[C@H]23)OCO4)cc(OC)c1O (some centres not stated)	0.345	6.05	–	12	–	34.8	0.271	0.953 µM and 5.61 µM	–	33.9	–	46.3	0.652	18.6	0.326	0.903 µM and 5.93 µM	–	–	0.151	0.682 µM and 6.81 µM
Cc1nnc(-c2ccc(-c3nc4ccccc4o3)cc2)o1	> 100	> 100	> 100	> 100	36.3	> 100	–	–	> 100	> 100	29.5	> 100	> 100	> 100	> 100	> 100 µM	42.2	> 100	25.8	68 µM
C#CCN(Cc1nc2cc(C(F)(F)F)ccc2nc1-c1ccccc1)c1ccc(F)c(F)c1	78.3	> 100	22.1	82.7	21.9	> 100	24	> 100 µM	> 100	> 100	39.4	> 100	> 100	> 100	–	–	37.3	> 100	–	–
COc1ccc2c(c1)OCCC1=C2SCC2(C)CCN=C12 (configuration not stated)	–	–	–	> 100	–	–	–	> 100 µM	–	> 100	–	> 100	–	> 100	–	–	–	–	–	–
CC(=O)O[C@H]1C=CC23OC(=O)[C@]1(C)[C@H]2[C@H](C(=O)O)C12CC(=O)[C@@](CO)(CC[C@H]13)C2	–	> 100	–	> 100	–	–	–	> 100 µM	–	> 100	–	> 100	–	> 100	–	> 100 µM	–	–	–	> 100 µM
c1ccc2nc(OCCN3CC3)ccc2c1	15	35.9	3.94	26.7	7.95	26.3	4.4	60.5 µM	14.5	29.2	3.06	24	8.15	23.9	9.2	28.8 µM	14.8	28	–	–
Nc1ccc(C(=O)N/C(=C\c2cccc([N+](=O)[O-])c2)c2nc3c4c(ccc3[nH]2)C(=O)c2ccccc2C4=O)cc1	–	–	–	> 100	–	–	–	> 100 µM	–	> 100	–	> 100	–	> 100	–	> 100 µM	–	–	–	–
CCOC(=S)SCN1C(=O)c2ccccc2S1(=O)=O	16.8	30.5	12.8	38.2	19.3	40.9	16.3	39.4 µM	3.42	15	35.7	> 100	16.4	33.5	13	27.6 µM	16.5	34.2	–	–
Nc1c(-c2nc3ccccc3[nH]2)sc(=S)n1-c1ccc(Cl)cc1	–	43	–	90.2	–	–	–	> 100 µM	–	> 100	–	> 100	–	82.7	–	54.6 µM	–	–	–	–
COc1ccc(C(=O)O/N=C2/CCC/C2=C\c2ccccc2)cc1	–	> 100	–	> 100	–	–	–	> 100 µM	–	> 100	–	> 100	–	> 100	–	> 100 µM	–	–	–	> 100 µM
COC(=O)Cc1nc2ccccc2o1	–	> 100	–	> 100	–	–	–	> 100 µM	–	> 100	–	> 100	–	> 100	–	> 100 µM	–	–	–	> 100 µM
C[n+]1c(N)n(C(=O)OCc2ccccc2)c(=O)c2c1ncn2C(=O)OCc1ccccc1	–	> 100	–	> 100	–	–	–	> 100 µM	–	> 100	–	> 100	–	> 100	–	> 100 µM	–	–	–	–
Cn1ccnc1C[N-]Cc1nccn1C.O=[N+]([O-])[O-].O=[N+]([O-])[O-].[Cu+2]	–	–	> 100	> 100	–	–	> 100	> 100 µM	> 100	> 100	> 100	> 100	> 100	> 100	–	–	–	–	–	–
CC1=C(C(=O)Nc2ccccc2)C(c2ccc(C(C)C)cc2)C(C(=O)Nc2ccccc2)=C(C)N1	–	> 66.9	–	29.8	–	–	–	75.2 µM	–	> 63.7	–	54.9	–	55.9	–	> 100 µM	–	–	–	55.5 µM
Cc1ccc(S(=O)OC23CC4CC(CC(C4)C2)C3)cc1 (configuration not stated)	–	> 100	–	> 100	–	–	–	–	–	> 100	–	> 100	–	> 100	–	> 100 µM	–	–	–	> 100 µM

Structure (SMILES)	GI50 (ACHN renal) [µM]	TGI (ACHN renal) [µM]	GI50 (RPMI-8226 leukemia) [µM]	TGI (RPMI-8226 leukemia) [µM]	GI50 (MDA-MB-231 breast) [µM]	TGI (MDA-MB-231 breast) [µM]	GI50 (CCRF-CEM leukemia) [µM]	TGI (CCRF-CEM leukemia)	GI50 (SK-MEL-28 melanoma) [µM]	TGI (SK-MEL-28 melanoma) [µM]	GI50 (K-562 leukemia) [µM]	TGI (K-562 leukemia) [µM]	GI50 (M14 melanoma) [µM]	TGI (M14 melanoma) [µM]	GI50 (CAKI-1 renal) [µM]	TGI (CAKI-1 renal)	GI50 (DU-145 prostate) [µM]	TGI (DU-145 prostate) [µM]	GI50 (SR leukemia) [µM]	TGI (SR leukemia)
COc1ccc2nc3cccc(C(=O)NCCN(C)C)c3nc2c1	–	6.78	–	27.6	–	–	–	–	–	4.88	–	6.94	–	–	–	> 20.9 µM	–	–	–	> 100 µM
CCOC(=O)/N=c1/nc(N(C)C)ss1	–	> 100	–	> 100	–	–	–	> 100 µM	–	> 100	–	> 100	–	> 100	–	> 100 µM	–	–	–	> 100 µM
N#Cc1cccc(OCc2ccccc2COc2cccc(C#N)c2)c1	27.2	86.3	15	59.1	7.83	47.5	–	–	> 100	> 100	64.5	> 100	43.9	> 100	11.1	25.1 µM	25.9	99.1	–	–
NS(=O)(=O)c1ccc(NC(=O)COC(=O)c2cccc3c(=O)c4ccccc4[nH]c23)cc1	–	71.9	–	> 100	–	–	–	> 89.5 µM	–	> 100	–	> 100	–	> 100	–	> 100 µM	–	–	–	19.7 µM
COc1ccc(C2=NOP(c3ccccc3)(c3ccccc3)(c3ccccc3)C2)cc1	–	> 100	–	33.5	–	–	–	39.6 µM	–	> 100	–	31.4	–	41.9	–	> 64 µM	–	–	–	34.9 µM
NCP(=O)(O)OCC(=O)O	–	> 100	–	–	–	–	–	> 100 µM	–	> 100	–	> 100	–	> 100	–	> 100 µM	–	–	–	> 100 µM
Cc1ccc(NC(=O)CCC(=O)C(C#N)c2ccccc2)cc1C (configuration not stated)	–	> 100	–	> 100	–	–	–	> 100 µM	–	–	–	> 100	–	> 100	–	> 100 µM	–	–	–	–
C1C[OH+]CC[OH+]CC[OH+]CC[OH+]CC[OH+]CC[OH+]1.[Cl-].[Nb+5]	> 100	> 100	> 100	> 100	–	–	–	–	> 100	> 100	> 100	> 100	> 100	> 100	> 100	> 100 µM	–	–	–	–
COC(=O)C1CC(C(=O)OC)c2nc3cc(C)c(C)cc3nc21 (configuration not stated)	–	> 100	–	> 100	–	–	–	> 100 µM	–	> 100	–	> 100	–	> 100	–	> 100 µM	–	–	–	–
CCc1nc(-n2c(-c3ccccc3)nc3ccccc3c2=O)nc(N)c1-c1ccc(Cl)cc1	5.53	> 100	50.3	> 100	> 100	> 100	9.94	> 100 µM	> 100	> 100	3.06	> 100	6.22	> 100	14.7	41 µM	72.6	> 100	–	–
CN(C)CCNc1nc(-c2cccs2)cc(-c2cccs2)n1	–	–	–	–	–	–	–	24.1 µM	–	30	–	36.5	–	27	–	–	–	–	–	15.4 µM
Cn1cc(NC(=O)c2cc(NC(=O)CCCCCCC(=O)Nc3cc(C(=O)Nc4cc(C(=O)NCCC(=N)N)n(C)c4)n(C)c3)cn2C)cc1C(=O)NCCC(=N)N	–	54	–	–	–	–	–	> 100 µM	–	16.9	–	> 100	–	33.9	–	89.7 µM	–	–	–	–
CC(C)(C)C(=O)OCc1nc2cc3c(cc2c(=O)[nH]1)CCC3=O	> 100	> 100	> 100	> 100	> 100	> 100	> 100	> 100 µM	> 100	> 100	> 100	> 100	> 100	> 100	> 100	> 100 µM	> 100	> 100	–	–
CN(C)CC1CCCC/C1=N/OC(=O)c1ccc(Cl)c(Cl)c1 (configuration not stated)	–	> 100	–	> 100	–	–	–	> 100 µM	–	> 100	–	> 100	–	> 100	–	> 100 µM	–	–	–	> 100 µM
Nc1nc(N)c(-c2ccccc2)c(CCC(=O)Nc2ccc(Cl)cc2)n1	–	> 100	–	> 100	–	–	–	> 100 µM	–	> 100	–	> 100	–	> 100	–	> 100 µM	–	–	–	> 100 µM
